15 compounds from US11091478B2 (Fochon Pharmaceuticals, Ltd., priority 2017, dated 2021) can be followed below.

The test system of this test is DOHH2 cells. Description: Cell proliferation assay (MTS), DOHH2 cells, 120 h. The test is classed as cell-based. The note with it: Homo sapiens, DOHH-2, 120 h. The source says:
Cell Proliferation Assays
MTS testing kit was purchased from Promega. The RPMI-1640, Fetal bovine serum and Penicillin-Streptomycin were purchased from Gibco. Dimethyl sulfoxide (DMSO) was purchased from Sigma.
To investigate whether a compound is able to inhibit the activity of BCL-2 in cells, a mechanism-based assay using DOHH2 (DSMZ No.® ACC 47) and RS4;11 (ATCC® CRL-1873™) cell was developed. In this assay, inhibition of Bcl-2 was detected by the inhibition of DOHH2 cells proliferation. DOHH2 cells were cultured in culture flasks to 40-80% confluence in RPMI-1640 plus 10% fetal bovine serum. Cells were collected and plated onto 96-well plates at desired cell density (5000 cells/well). Plates were incubated overnight at 37° C., with 5% CO2 to adhere. Compounds were added to the plates, and the final compound concentrations were 10000, 3333, 1111, […], 124, 41, 14, 4.6 and 1.5 nM. Plates plated with DOHH2 or RS4;11 cells were placed at 37° C., with 5% CO2 for 120 h (DOHH2) or 72 h (RS4;11) respectively. 20 μl MTS/100 μl medium mixture solution were added to each well and incubate the plates for exactly 2 hours. The reaction was stopped by adding 25 μl 10% SDS per well. Measure absorbance at 490 nm and 650 nm (reference wavelength). IC50 was calculated using GraphPad Prism 5.0.
Select compounds prepared as described above were assayed according to the biological procedures described herein.
Consider `C[C@@H]1COCCN1C[C@H]1COc2cc(S(=O)(=O)NC(=O)c3ccc(N4CCN(CC5=C(c6ccc(Cl)cc6)CC(C)(C)CC5)CC4)cc3Oc3cnc4[nH]ccc4c3)cc([N+](=O)[O-])c2N1` [Example 2-86, 2-((1H-pyrrolo[2,3-b]pyridin-5-yl)oxy)-4-(4-((4′-chloro-5,5-dimethyl-3,4,5,6-tetra-hydro-[1,1′-biphenyl]-2-yl)methyl)piperazin-1-yl)-N-(((S)-3-(((R)-3-methylmorpholino)meth-yl)-5-nitro-3,4-dihydro-2H-benzo[b][1,4]oxazin-7-yl)sulfonyl)benzamide], for which the half-inhibitory concentration (IC50) was 648 nM.
The same measure for `CC1(C)CCC(CN2CCN(c3ccc(C(=O)NS(=O)(=O)c4cc5c(c([N+](=O)[O-])c4)N[C@H](c4ccc(C#N)cc4)CO5)c(Oc4cnc5[nH]ccc5c4)c3)CC2)=C(c2ccc(Cl)cc2)C1` [Example 2-170, (R)-2-((1H-pyrrolo[2,3-b]pyridin-5-yl)oxy)-4-(4-((4′-chloro-5,5-dimethyl-3,4,5,6-tetra-hydro-[1,1′-biphenyl]-2-yl)methyl)piperazin-1-yl)-N-((3-(4-cyanophenyl)-5-nitro-3,4-dihydro-2H-benzo[b][1,4]oxazin-7-yl)sulfo-nyl)benzamide]: 464 nM; for `CC1(C)CCC(CN2CCN(c3ccc(C(=O)NS(=O)(=O)c4cc5c(c([N+](=O)[O-])c4)N[C@@H](C4CC4)CO5)c(-n4ncc5nc6[nH]ccc6cc54)c3)CC2)=C(c2ccc(Cl)cc2)C1` [Example 6-2, (S)-4-(4-((4′-chloro-5,5-dimethyl-3,4,5,6-tetrahydro-[1,1′-biphenyl]-2-yl)methyl)piperazin-1-yl)-N-((3-cyclopropyl-5-nitro-3,4-dihydro-2H-benzo[b][1,4]oxazin-7-yl)sulfonyl)-2-(pyrazolo[4,3-b]pyrrolo[3,2-e]pyridin-1(5H)-yl)benzamide]: 264 nM.
The same measure for `CC1(C)CCC(CN2CCN(c3ccc(C(=O)NS(=O)(=O)c4cc5c(c([N+](=O)[O-])c4)N[C@@H](c4ccc(F)cc4)CO5)c(Oc4cnc5[nH]ccc5c4)c3)CC2)=C(c2ccc(Cl)cc2)C1` [Example 2-173, (S)-2-((1H-pyrrolo[2,3-b]pyridin-5-yl)oxy)-4-(4-((4′-chloro-5,5-dimethyl-3,4,5,6-tetra-hydro-[1,1′-biphenyl]-2-yl)methyl)piperazin-1-yl)-N-((3-(4-fluorophenyl)-5-nitro-3,4-dihydro-2H-benzo[b][1,4]oxazin-7-yl)sulfo-nyl)benzamide]: 24 nM; for `CC1(C)CCC(CN2CCN(c3ccc(C(=O)NS(=O)(=O)c4cc5c(c([N+](=O)[O-])c4)N[C@H](c4ccc(Cl)cn4)CO5)c(Oc4cnc5[nH]ccc5c4)c3)CC2)=C(c2ccc(Cl)cc2)C1` [Example 2-217, (R)-2-((1H-pyrrolo[2,3-b]pyridin-5-yl)oxy)-4-(4-((4′-chloro-5,5-dimethyl-3,4,5,6-tetra-hydro-[1,1′-biphenyl]-2-yl)methyl)piperazin-1-yl)-N-((3-(5-chloropyridin-2-yl)-5-nitro-3,4-dihydro-2H-benzo[b][1,4]oxazin-7-yl)sulfonyl)benzamide]: 715 nM; for `CC1(C)CCC(CN2CCN(c3ccc(C(=O)NS(=O)(=O)c4cc5c(c([N+](=O)[O-])c4)N[C@@H](Cc4ccccn4)CO5)c(-n4ncc5nc6[nH]ccc6cc54)c3)CC2)=C(c2ccc(Cl)cc2)C1` [Example 6-3, (S)-4-(4-((4′-chloro-5,5-dimethyl-3,4,5,6-tetrahydro-[1,1′-biphenyl]-2-yl)methyl)piperazin-1-yl)-N-((5-nitro-3-(pyridin-2-ylmethyl)-3,4-dihydro-2H-benzo[b][1,4]oxazin-7-yl)sulfonyl)-2-(pyrazolo[4,3-b]pyrrolo[3,2-e]pyridin-1(5H)-yl)benzamide]: 185 nM.
The same measure for `CC1(C)CCC(CN2CCN(c3ccc(C(=O)NS(=O)(=O)c4cc5c(c([N+](=O)[O-])c4)N[C@@H](C4CCNCC4)CO5)c(Oc4cnc5[nH]ccc5c4)c3)CC2)=C(c2ccc(Cl)cc2)C1` [Example 2-228, (S)-2-((1H-pyrrolo[2,3-b]pyridin-5-yl)oxy)-4-(4-((4′-chloro-5,5-dimethyl-3,4,5,6-tetra-hydro-[1,1′-biphenyl]-2-yl)methyl)piperazin-1-yl)-N-((5-nitro-3-(piperidin-4-yl)-3,4-dihydro-2H-benzo[b][1,4]oxazin-7-yl)sulfonyl)benzamide]: 48 nM.
In turn, `CC(=O)NCC[C@@H]1COc2cc(S(=O)(=O)NC(=O)c3ccc(N4CCN(CC5=C(c6ccc(Cl)cc6)CC(C)(C)CC5)CC4)cc3Oc3cnc4[nH]ccc4c3)cc([N+](=O)[O-])c2N1` [Example 2-62, (R)-2-((1H-pyrrolo[2,3-b]pyridin-5-yl)oxy)-N-((3-(2-acetamidoethyl)-5-nitro-3,4-di-hydro-2H-benzo[b][1,4]oxazin-7-yl)sulfonyl)-4-(4-((4′-chloro-5,5-dimethyl-3,4,5,6-tetra-hydro-[1,1′-biphenyl]-2-yl)methyl)piperazin-1-yl)benzamide] came in with an IC50 of 230 nM.
As to `CC1(C)CCC(CN2CCN(c3ccc(C(=O)NS(=O)(=O)c4cc5c(c([N+](=O)[O-])c4)N[C@@H](c4ccc(F)cn4)CO5)c(Oc4cnc5[nH]ccc5c4)c3)CC2)=C(c2ccc(Cl)cc2)C1` [Example 2-197, (S)-2-((1H-pyrrolo[2,3-b]pyridin-5-yl)oxy)-4-(4-((4′-chloro-5,5-dimethyl-3,4,5,6-tetra-hydro-[1,1′-biphenyl]-2-yl)methyl)piperazin-1-yl)-N-((3-(5-fluoropyridin-2-yl)-5-nitro-3,4-dihydro-2H-benzo[b][1,4]oxazin-7-yl)sulfonyl)benzamide], half-maximal inhibition (IC50) required 412 nM.
The figure for `CC1(C)CCC(CN2CCN(c3ccc(C(=O)NS(=O)(=O)c4cc5c(c([N+](=O)[O-])c4)N[C@@H](c4ccc(Cl)cc4)CO5)c(Oc4cnc5[nH]ccc5c4)c3)CC2)=C(c2ccc(Cl)cc2)C1` [Example 2-174, (S)-2-((1H-pyrrolo[2,3-b]pyridin-5-yl)oxy)-4-(4-((4′-chloro-5,5-dimethyl-3,4,5,6-tetra-hydro-[1,1′-biphenyl]-2-yl)methyl)piperazin-1-yl)-N-((3-(4-chlorophenyl)-5-nitro-3,4-dihydro-2H-benzo[b][1,4]oxazin-7-yl)sulfo-nyl)benzamide] is 23 nM; for `CC1(C)CCC(CN2CCN(c3ccc(C(=O)NS(=O)(=O)c4cc5c(c([N+](=O)[O-])c4)N[C@H](CCNC(=O)N4CCOCC4)CO5)c(Oc4cnc5[nH]ccc5c4)c3)CC2)=C(c2ccc(Cl)cc2)C1` [Example 2-59] it is 730 nM; for `CC1(C)CCC(CN2CCN(c3ccc(C(=O)NS(=O)(=O)c4cc5c(c([N+](=O)[O-])c4)N[C@H](CN4CCOC4=O)CO5)c(Oc4cnc5[nH]ccc5c4)c3)CC2)=C(c2ccc(Cl)cc2)C1` [Example 2-146, (R)-2-((1H-pyrrolo[2,3-b]pyridin-5-yl)oxy)-4-(4-((4′-chloro-5,5-dimethyl-3,4,5,6-tetra-hydro-[1,1′-biphenyl]-2-yl)methyl)piperazin-1-yl)-N-((5-nitro-3-((2-oxooxazolidin-3-yl)methyl)-3,4-dihydro-2H-benzo[b][1,4]oxazin-7-yl)sulfonyl)benzamide] it is 160 nM.
Compound `CN=S1(=O)CCN(C[C@H]2COc3cc(S(=O)(=O)NC(=O)c4ccc(N5CCN(CC6=C(c7ccc(Cl)cc7)CC(C)(C)CC6)CC5)cc4Oc4cnc5[nH]ccc5c4)cc([N+](=O)[O-])c3N2)CC1` [Example 2-122, (S)-2-((1H-pyrrolo[2,3-b]pyridin-5-yl)oxy)-4-(4-((4′-chloro-5,5-dimethyl-3,4,5,6-tetra-hydro-[1,1′-biphenyl]-2-yl)methyl)piperazin-1-yl)-N-((3-((1-(methylimino)-1-oxido-1λ^6-thiomorpholino)methyl)-5-nitro-3,4-di-hydro-2H-benzo[b][1,4]oxazin-7-yl)sulfonyl)benzamide] registered an IC50 of 660 nM.
The figure for `CC1(C)CCC(CN2CCN(c3ccc(C(=O)NS(=O)(=O)c4cc5c(c([N+](=O)[O-])c4)N[C@H](c4ccc(Cl)cc4)CO5)c(Oc4cnc5[nH]ccc5c4)c3)CC2)=C(c2ccc(Cl)cc2)C1` [Example 2-167, (R)-2-((1H-pyrrolo[2,3-b]pyridin-5-yl)oxy)-4-(4-((4′-chloro-5,5-dimethyl-3,4,5,6-tetra-hydro-[1,1′-biphenyl]-2-yl)methyl)piperazin-1-yl)-N-((3-(4-chlorophenyl)-5-nitro-3,4-dihydro-2H-benzo[b][1,4]oxazin-7-yl)sulfo-nyl)benzamide] is 29 nM; for `CC1(C)CCC(CN2CCN(c3ccc(C(=O)NS(=O)(=O)c4cc5c(c([N+](=O)[O-])c4)O[C@H](c4ccc(Cl)cn4)CN5)c(Oc4cnc5[nH]ccc5c4)c3)CC2)=C(c2ccc(Cl)cc2)C1` [Example 2-218, (S)-2-((1H-pyrrolo[2,3-b]pyridin-5-yl)oxy)-4-(4-((4′-chloro-5,5-dimethyl-3,4,5,6-tetra-hydro-[1,1′-biphenyl]-2-yl)methyl)piperazin-1-yl)-N-((2-(5-chloropyridin-2-yl)-8-nitro-3,4-dihdyro-2H-benzo[b][1,4]oxazin-6-yl)sulfonyl)benzamide] it is 507 nM.

For orientation: IC50 means the concentration at which inhibition is half-maximal. A lower IC50 goes with higher potency.
